This is an account of results in US20240309004A1, “SELECTIVE CYCLIN-DEPENDENT KINASE INHIBITORS AND METHODS OF THERAPEUTIC USE THEREOF” (ViroKyne Therapeutics, LLC, priority 2021, published 2024).

In data set [1] the test system is HCMV strain GDGr K17 - resistant isolate. The data set can be described thus: HCMV primary assay, resistant isolate GDGr K17, HFF cells. The class given is cell-based, Human Cytomegalovirus. The note with it: Human betaherpesvirus 5, HFF. The protocol:
(§1) Assays were performed in monolayers as described. […] Toxicity was measured using CTG as above. […] Toxicity was measured using CTG as above.

Data set [2] has as its system VZV strain Ellen. The data set can be described thus: VZV primary assay, strain Ellen, HFF cells. The class given is cell-based, Varicella Zoster Virus. The note with it: Human alphaherpesvirus 3, VZV primary assay, strain Ellen, cell line HFF; for EC50: read-out: EC50; for EC90: read-out: EC90. The protocol: as §1
(§2) Monolayers of HFF cells were prepared in six-well plates and incubated at 37° C. for 2 d to allow the cells to reach confluency. Media was then aspirated from the wells and 0.2 mL of virus-containing solution was added to each of three wells to yield 20-30 plaques in each well. The virus was allowed to adsorb to the cells for 1 h and the plates were agitated every 15 minutes. Compounds were diluted in assay media consisting of MEM with Earl's salts supplemented with 2% FBS, glutamine, penicillin, and gentamycin. Diluted drug was added to duplicate wells and the plates were incubated for various times, depending on the virus used. For HSV-1 and -2, the monolayers were then stained with 1% crystal violet in 20% methanol and the unbound dye removed by washing with dH20. For all other assays, the cell monolayer was stained with 1% Neutral Red solution for 4-6 h then the stain was aspirated and the cells were washed with PBS.

The test system of data set [3] is HSV1 strain E-377. The experiment in a line: HSV1 primary assay, strain E-377, HFF cells. The class given is cell-based, Herpes Simplex Virus 1. The note with it: Human alphaherpesvirus 1, HSV1 primary assay, strain E-377, HFF cells; for EC50: read-out: EC50. How it is done:
as §1, §2

The test system of data set [4] is HSV1 strain DM.2 - resistant isolate. The data set can be described thus: HSV1 primary assay, resistant isolate DM.2, HFF cells. The class given is cell-based, Herpes Simplex Virus 1. The note with it: Human alphaherpesvirus 1, HFF. How it is done:
as §1, §2

Data set [5] has as its system HSV2 strain G. The data set can be described thus: HSV2 primary assay, strain G, HFF cells. The class given is cell-based, herpes simplex virus 2. The note with it: Human alphaherpesvirus 2, HSV2 primary assay, strain G, HFF cells; for EC50: read-out: EC50. The protocol: as §1, §2
Data set [6] has as its system HCMV strain AD169. The experiment in a line: HCMV primary assay (CPE), strain AD169, HFF cells. The class given is cell-based, Human Cytomegalovirus. The note with it: Human betaherpesvirus 5, HCMV primary assay, virus strain AD169, HFF cells; for EC50: read-out: EC50; for EC90: read-out: EC90. How it is done:
The antiviral activity of the compound against HCMV in the described Primary assay was measured by treating primary Human foreskin fibroblast (HFF) cells infected with HCMV with a range of compound concentrations—description of methods for this assay can be found in section 1.3.2.1. […] . Additional tested assay parameters in this Primary assay can be found in Table 3.2.1 and include EC90, S150, and S190 values—descriptions of those data points can be found in section 3.2.1.

A short description of data set [7]: Cytotoxicity concurrent with HCMV AD169 primary assay. The class given is cell-based, human. The note with it: human, CC50.
In data set [8] the test system is HCMV strain AD169. The data set can be described thus: HCMV secondary assay (yield reduction), strain AD169, HFF cells. The note with it: Human betaherpesvirus 5, virus strain AD169, HFF cells. The class given is cell-based, Human Cytomegalovirus. How it is done:
(§3) Monolayers of HFF cells were prepared in 96-well plates and incubated at 37° C. for 1 d to allow the cells to reach confluency. Media was then aspirated from the wells and cells infected at a high MOI. At 1 h following infection, the inocula were removed and the monolayers rinsed with fresh media. […] Drug dilutions were added to the wells and the plates were incubated for various times, depending on the virus used and represents a single replication cycle for the virus. A duplicate set of dilutions were also performed but remained uninfected to serve as a cytotoxicity control and received equal compound exposure. Supernatants from each of the infected wells were subsequently titered using CTG in a TCID50 assay to quantify the progeny virus. For HCMV only, viral yield in the supernatants from the infected cells were titered using qPCR with HCMV primers [NT], and probe [NT].

Data set [9] in a line: Cytotoxicity concurrent with HCMV secondary assay. The class given is cell-based. The note with it: human. The protocol: as §3
For data set [10], the system named is Murine CMV strain Smith. The experiment in a line: Murine CMV primary assay, strain Smith, MEF cells. The class given is cell-based, Mouse Cytomegalovirus.
The subject of data set [11] is Murine CMV strain Smith. The data set can be described thus: Murine CMV secondary assay, strain Smith, MEF cells. The class given is cell-based, Mouse Cytomegalovirus. The protocol: (§4) Compounds that were positive in the CPE assay were confirmed in a similar assay in 96-well plates according to established laboratory protocols with the compounds added 1 h post infection […]. Additionally, 12 1:3 dilutions were done instead of 6 1:5 dilutions for added accuracy. Genome copy number was determined by qPCR using primers 5′-[…]-3′, 5′ […]-3′, and probe 5′-[…]-3′.

Data set [12] concerns MEF cells. The data set can be described thus: Cytotoxicity concurrent with Murine CMV secondary assay. The class given is cell-based, mouse. The protocol:
as §4

A short description of data set [13]: Cytotoxicity concurrent with VZV Ellen primary assay. The class given is cell-based. The note with it: human. How it is done:
as §1

Data set [14] in a line: Cytotoxicity concurrent with HSV1 E-377 primary assay. The note with it: human. The class given is cell-based. How it is done: as §1
Data set [15] is described as follows: Cytotoxicity concurrent with HSV2 primary assay. The note with it: human. The class given is cell-based. How it is done: as §1
For data set [16], the system named is Epstein-Barr virus Akata strain. The experiment in a line: Epstein-Barr primary assay, Akata strain, Akata cells. The class given is cell-based. The note with it: human gammaherpesvirus 4, Epstein-Barr primary assay, Akata strain, Akata cells.
In data set [17] the test system is Adenovirus Adenoid75 strain. The experiment in a line: Adenovirus primary assay, Adenoid75 strain, HFF cells. The class given is cell-based. The note with it: unidentified adenovirus, Adenovirus primary assay, HFF cells, Adenoid75 strain.
A short description of data set [18]: Cytotoxicity concurrent with Adenovirus primary assay. The class given is cell-based. The note with it: human.
Data set [19] deals with Adenovirus Adenoid75 strain. The experiment in a line: Adenovirus secondary assay (yield reduction), Adenoid75 strain, HFF cells. The class given is cell-based. The note with it: unidentified adenovirus; Adeno secondary assay, strain Adenoid75, HFF cells; read-out: EC90. How it is done:
as §3

The nature of data set [20]: Cytotoxicity concurrent with Adenovirus secondary assay. The note with it: human, uninfected HFF cell monolayers; Adeno secondary assay, HFF cells. The class given is cell-based. How it is done:
as §3

A short description of data set [21]: Cytotoxicity concurrent with EBV primary assay. The note with it: human, Akata cells without virus induction.

Each structure is given as a SMILES string.

Regarding `Nc1nc2c(ncn2COCCO)c(=O)[nH]1` [Acyclovir, reference compound], the EC50 (usually the concentration giving half of the maximal effect) was 16.8 µM in data set [1]; 5.59 µM in [2]; 2.56 µM in [3]; 150 µM in data set [4]; 2.56 µM in data set [5]. Moreover, the EC90 (usually the concentration at which the effect reaches the 90% level) in data set [2] was 69.4 µM.
In the case of `Nc1nc(O)c2ncn(COC(CO)CO)c2n1` [Ganciclovir, ganciclovir, reference compound], the EC50 was determined as 1.78 µM in [6], 5.48 µM in data set [10] and 7.4 µM in data set [11]. Also, the 90% effect concentration (EC90) was 5.67 µM in data set [6], 3.88 µM in data set [8], 24.9 µM in data set [10] and 26 µM in data set [11]. The CC50 in data set [7] was found to be 150 µM; in data set [9], 20 µM; in [12], 84.8 μ.M.
On to `Fc1ccc2c(c1)nn1cnc(NC3CCCOCC3)cc21` (stereo not drawn) [VKT-015], for which the EC50 worked out at 10 µM in data set [6]; 10 µM in data set [2]; 50 µM in data set [3]; 50 µM in [5]; 8.73 µM in data set [16] (read-out: EC50); 7.13 µM in data set [17] (read-out: EC50). In addition, the EC90 in data set [6] worked out at 10 µM; in data set [2] it was 10 µM; in data set [3] (read-out: EC90), 50 µM; in data set [5] (read-out: EC90) it was 50 µM; in data set [16] (read-out: EC90), 29.9 µM; in data set [17] (read-out: EC90) it was 10 µM. Besides, the EC90 in data set [19] stood at 17.5 µM. In addition, the CC50 in data set [7] turned out to be 27.7 µM; in data set [13], 39.7 µM; in data set [14] it was 50 µM; in data set [15] it was 50 µM; in data set [18], 41.8 µM; in data set [20], 48.6 µM. The molecule also had a CC50 at 72 h in data set [21] of 50 µM.
